Source: patent US12692287B2, “Polymorphic form of reduced B-nicotinamide mononucleotide calcium salt, and preparation method and use therefor” (EffePharm (Shanghai) Co., Ltd., priority 2023, dated 2026)
Like-named read-outs stand apart in the source and are kept apart here.

Experiments:
[1] = Hygroscopicity: solids placed openly at 25° C. and 65% RH, water content by KF; format: physicochemical
Description: The solid forms of NMNH calcium salt crystalline form A, crystalline form B, crystalline form C, crystalline form D, and crystalline form E were placed openly in a stability test chamber at 25° C. and 65% RH to evaluate their stability and hygroscopicity.

[2] = Stability: solids placed openly in a stability test chamber at 25° C. and 65% RH, purity by HPLC; format: physicochemical; conditions: calcium salt
Description: NMNH is the reduced form of NMN, sensitive to air, easily oxidized, and unstable, making it unsuitable for long-term storage and market promotion. WO2023160405 (A1) reported the NMNH disodium salt compound and its crystalline and amorphous forms. […] Such stability fails to meet the shelf-life requirements for commercial products, hindering market promotion. The solid forms of NMNH calcium salt crystalline form A, crystalline form B, crystalline form C, crystalline form D, and crystalline form E were placed openly in a stability test chamber at 25° C. and 65% RH to evaluate their stability and hygroscopicity.

[3] = cited from earlier work; for Appearance of the solid / Purity (HPLC, area %): 25° C., 65% RH, data of WO2023160405 (A1); for Purity: 25° C. and 65% RH / air, WO2023160405 (A1)
[4] = WO2023160405 (A1); cited from earlier work

Structure (SMILES)	Water content of NMNH calcium salt crystalline form (KF) ([1]; 0 day) [%]	Water content of NMNH calcium salt crystalline form (KF) ([1]; 5 days) [%]	Water content of NMNH calcium salt crystalline form (KF) ([1]; 60 days) [%]	Purity (HPLC, area %) ([2]; 0 day) [area %]	Purity (HPLC, area %) ([2]; 5 days) [area %]	Purity (HPLC, area %) ([2]; 60 days) [area %]	further results
NC(=O)C1=CN([C@@H]2O[C@H](COP(=O)(O)O)[C@@H](O)[C@H]2O)C=CC1.[Ca+2] [NMNH calcium salt Crystalline Form A, reduced β-nicotinamide mononucleotide calcium salt]	9.2	9.2	9.0	99.83	99.82	99.82	–
NC(=O)C1=CN([C@@H]2O[C@H](COP(=O)(O)O)[C@@H](O)[C@H]2O)C=CC1.[Ca+2] [NMNH calcium salt Crystalline Form B, reduced β-nicotinamide mononucleotide calcium salt]	13.3	13.2	12.9	99.75	99.75	99.75	–
NC(=O)C1=CN([C@@H]2O[C@H](COP(=O)(O)O)[C@@H](O)[C@H]2O)C=CC1.[Ca+2] [NMNH calcium salt Crystalline Form C, reduced β-nicotinamide mononucleotide calcium salt]	9.5	9.5	9.3	99.78	99.78	99.79	–
NC(=O)C1=CN([C@@H]2O[C@H](COP(=O)(O)O)[C@@H](O)[C@H]2O)C=CC1.[Ca+2] [NMNH calcium salt Crystalline Form D, reduced β-nicotinamide mononucleotide calcium salt]	18.4	18.4	18.3	99.64	99.64	99.64	–
NC(=O)C1=CN([C@@H]2O[C@H](COP(=O)(O)O)[C@@H](O)[C@H]2O)C=CC1.[Ca+2] [NMNH calcium salt Crystalline Form E, reduced β-nicotinamide mononucleotide calcium salt]	20.3	20.3	20.0	99.60	99.60	99.59	–
NC(=O)C1=CN([C@@H]2O[C@H](COP(=O)([O-])[O-])[C@@H](O)[C@H]2O)C=CC1.[Na+].[Na+] [NMNH disodium salt Amorphous Form, NMNH disodium salt]	–	–	–	–	–	–	Appearance of the solid ([3]; 0 day, disodium salt): (powder); Purity (HPLC, area %) ([3]; 0 day, disodium salt): 99.30 area %; Appearance of the solid ([3]; 0 day, listed as amorphous solid of NMNH disodium salt, disodium salt): powder; Purity (HPLC, area %) ([3]; 1 day, disodium salt): 99.02 area %; Appearance of the solid ([3]; after 1 day, disodium salt): (oil); Appearance of the solid ([3]; after 1 day, listed as NMNH disodium salt amorphous powder, disodium salt): oil; Appearance of the solid ([3]; after 1 day, listed as amorphous solid of NMNH disodium salt, disodium salt): oil; Purity ([3]; after 1 day): 99.02%; Purity ([3]; initial value before exposure, listed as NMNH disodium salt amorphous powder, disodium salt): 99.30%; Purity ([3]; initial value before exposure, listed as amorphous solid of NMNH disodium salt, disodium salt): 99.30%
NC(=O)C1=CN([C@@H]2O[C@H](COP(=O)([O-])[O-])[C@@H](O)[C@H]2O)C=CC1.[Na+].[Na+] [NMNH disodium salt Crystalline Form A, NMNH disodium salt]	–	–	–	–	–	–	Purity (HPLC, area %) ([3]; 0 day, disodium salt): 99.33 area %; Purity (HPLC, area %) ([3]; 1 day, disodium salt): 99.27 area %; Purity (HPLC, area %) ([3]; 5 days): 99.01 area %; Purity ([3]; after 5 days): 99.01%; Purity ([3]; text, initial value before exposure, listed as NMNH disodium salt crystalline Form A, disodium salt): 99.33%; Purity ([3]; text, initial value before exposure, listed as NMNH disodium salt crystalline form A, disodium salt): 99.33%
NC(=O)C1=CN([C@@H]2O[C@H](COP(=O)([O-])[O-])[C@@H](O)[C@H]2O)C=CC1.[Na+].[Na+] [NMNH disodium salt crystalline form B, NMNH disodium salt]	–	–	–	–	–	–	Behaviour of the crystalline form when stored in the air [4]: absorb water and transform into crystalline form A
